In US6573274B1, “Sulfonamide compounds and uses thereof as medicines” (Fujisawa Pharmaceutical Co. Ltd., priority 1998, dated 2003):

Row | SMILES | melting point [°C]
1 | CCCCCS(=O)(=O)NC(=O)c1ccc2nc(C)n(Cc3ccc(N(C)CC4CCCCC4)cc3Cl)c2n1 [Example 53, 3-(2-chloro-4-(N-(cyclohexylmethyl)methylamino)benzyl)-2-methyl-5-(1-pentanesulfonylcarbamoyl)-3H-imidazo[4,5-b]pyridine] | 169 to 170
2 | CCCCCS(=O)(=O)NC(=O)c1ccc2nc(C)n(Cc3ncc(C(F)(F)F)cc3Cl)c2n1 [Example 57, 3-[(3-chloro-5-(trifluoromethyl)-2-pyridyl)methyl]-2-methyl-5-(1-pentanesulfonylcarbamoyl)-3H-imidazo[4,5-b]pyridine] | 169 to 170
3 | CCCNS(=O)(=O)NC(=O)c1ccc2nc(C)n(Cc3ccc(-c4ccccc4)cc3Cl)c2n1 [Example 60, 3-(2-chloro-4-phenylbenzyl)-2-methyl-5-[(1-propylaminosulfonyl)carbamoyl]-3H-imidazo[4,5-b]pyridine] | 208 to 209
4 | CCCCCS(=O)(=O)NC(=O)c1ccc2nc(C)n(Cc3ccc(N(C)C(=O)C(C)(C)C)cc3Cl)c2n1 [Example 64, 3-(2-chloro-4-(methyl(pivaloyl)amino)benzyl)-2-methyl-5-(1-pentanesulfonylcarbamoyl)-3H-imidazo[4,5-b]pyridine] | 207 to 208
5 | CCCCCOc1ccc(Cn2c(CC)nc3ccc(C(=O)NS(=O)(=O)CCCC)nc32)c(Cl)c1 [Example 66, 5-(1-butanesulfonylcarbamoyl)-3-(2-chloro-4-(1-pentyloxy)benzyl)-2-ethyl-3H-imidazo[4,5-b]pyridine] | 140 to 142
6 | CCCCS(=O)(=O)NC(=O)c1ccc2nc(CC)n(Cc3ccc(OCC4CCCCC4)cc3Cl)c2n1 [Example 67, 5-(1-butanesulfonylcarbamoyl)-3-(2-chloro-4-(cyclohexylmethyloxy)benzyl)-2-ethyl-3H-imidazo[4,5-b]pyridine] | 145 to 146
7 | CCCCCS(=O)(=O)NC(=O)c1ccc2nc(CC)n(Cc3ccc(OCC4CCCCC4)cc3Cl)c2n1 [Example 68, 3-(2-chloro-4-(cyclohexylmethyloxy)benzyl)-2-ethyl-5-(1-pentanesulfonylcarbamoyl)-3H-imidazo[4,5-b]pyridine] | 137 to 139
8 | CCCCS(=O)(=O)NC(=O)c1ccc2nc(C)n(Cc3ccc(-c4ccco4)cc3Cl)c2n1 [Example 69, 5-(1-butanesulfonylcarbamoyl)-3-[2-chloro-4-(2-furyl)benzyl]-2-methyl-3H-imidazo[4,5-b]pyridine] | 208 to 209
9 | CCCCCS(=O)(=O)NC(=O)c1ccc2nc(C)n(Cc3ccc(-c4ccco4)cc3Cl)c2n1 [Example 70, 3-[2-chloro-4-(2-furyl)benzyl]-2-methyl-5-(1-pentanesulfonylcarbamoyl)-3H-imidazo[4,5-b]pyridine] | 184 to 185
10 | CCCCCS(=O)(=O)NC(=O)c1ccc2nc(C)n(Cc3ccc(N(CC)C(=O)OC(C)(C)C)cc3Cl)c2n1 [Example 72, 3-[4-(N-(tert-butoxycarbonyl)-N-ethylamino)-2-chlorobenzyl]-2-methyl-5-(1-pentanesulfonylcarbamoyl)-3H-imidazo[4,5-b]pyridine] | 131 to 132
11 | CCCCCS(=O)(=O)NC(=O)c1cc(C)c2nc(C)n(Cc3ccc(N(C)C(=O)OC(C)(C)C)cc3Cl)c2n1 [Example 77, 3-(4-(N-(tert-butoxycarbonyl)-N-methylamino)-2-chlorobenzyl)-2,7-dimethyl-5-(1-pentanesulfonylcarbamoyl)-3H-imidazo[4,5-b]pyridine] | 193 to 194
12 | CCCCCS(=O)(=O)NC(=O)c1cc(C)c2nc(C)n(Cc3ccc(N(CC)C(=O)OC(C)(C)C)cc3Cl)c2n1 [Example 81, 3-[4-(N-(tert-butoxycarbonyl)-N-ethylamino)-2-chlorobenzyl]-2,7-dimethyl-5-(1-pentanesulfonylcarbamoyl)-3H-imidazo[4,5-b]pyridine] | 190 to 191
13 | CCCCCS(=O)(=O)NC(=O)c1ccc2nc(C)n(Cc3ccc(-n4cccc4)cc3Cl)c2n1 [Example 83, 3-(2-chloro-4-(1-pyrrolyl)benzyl)-2-methyl-5-(1-pentanesulfonylcarbamoyl)-3H-imidazo[4,5-b]pyridine] | 171 to 172
14 | CCCCCS(=O)(=O)NC(=O)c1cc(C)c2nc(C)n(Cc3ccc(-c4ccco4)cc3Cl)c2n1 [Example 86, 3-[2-chloro-4-(2-furyl)benzyl]-2,7-dimethyl-5-(1-pentanesulfonylcarbamoyl)-3H-imidazo[4,5-b]pyridine] | 177 to 178
15 | CCCCS(=O)(=O)NC(=O)c1cc(C)c2nc(C)n(Cc3ccc(-c4ccco4)cc3Cl)c2n1 [Example 88, 3-[2-chloro-4-(2-furyl)benzyl]-2,7-dimethyl-5-(1-butanesulfonylcarbamoyl)-3H-imidazo[4,5-b]pyridine] | 231 to 233
16 | CCCCCS(=O)(=O)NC(=O)c1ccc2nc(C)n(Cc3ccc(N(C)C(=O)OCCC)cc3Cl)c2n1 [Example 95, 3-(2-chloro-4-(N-methyl-N-(1-propoxycarbonyl)amino)benzyl)-2-methyl-5-(1-pentanesulfonylcarbamoyl)-3H-imidazo[4,5-b]pyridine] | 169 to 170

Row | SMILES | melting point [°C]
17 | CCCCCS(=O)(=O)NC(=O)c1ccc2nc(C)n(Cc3ccc(N(C)C(=O)OC(C)C)cc3Cl)c2n1 [Example 96, 3-(2-chloro-4-(N-methyl-N-(isopropoxycarbonyl)amino)benzyl)-2-methyl-5-(1-pentanesulfonylcarbamoyl)-3H-imidazo[4,5-b]pyridine] | 151 to 152
18 | CCCCCS(=O)(=O)NC(=O)c1ccc2nc(C)n(Cc3ccc(NC(=O)OC(C)(C)C)cc3Cl)c2n1 [Example 97, 3-(4-(N-(tert-butoxycarbonyl)amino)-2-chlorobenzyl)-2-methyl-5-(1-pentanesulfonylcarbamoyl)-3H-imidazo[4,5-b]pyridine] | 222 to 224
19 | CCC/C=C/S(=O)(=O)NC(=O)c1ccc2nc(C)n(Cc3ccc(NC(=O)OC(C)C)cc3Cl)c2n1 [Example 102, 3-(2-chloro-4-(N-(isopropoxycarbonyl)amino)benzyl)-2-methyl-5-((E)-1-penten-1-ylsulfonylcarbamoyl)-3H-imidazo[4,5-b]pyridine] | 187 to 189
20 | CCCCS(=O)(=O)NC(=O)c1ccc2nc(C)n(Cc3ccc(NC(=O)OC(C)C)cc3Cl)c2n1 [Example 103, 5-(1-butanesulfonylcarbamoyl)-3-(2-chloro-4-(N-(isopropoxycarbonyl)amino)benzyl)-2-methyl-3H-imidazo[4,5-b]pyridine] | 181 to 182
21 | CCCCCS(=O)(=O)NC(=O)c1ccc2nc(C)n(Cc3ccc(NC(=O)OC(C)C)cc3Cl)c2n1 [Example 108, 3-(4-(N-(isopropoxycarbonyl)amino)-2-chlorobenzyl)-2-methyl-5-(1-pentanesulfonylcarbamoyl)-3H-imidazo[4,5-b]pyridine] | 198 to 199
22 | CCCCS(=O)(=O)NC(=O)c1ccc2nc(C)n(Cc3ccc(NC(=O)OC(C)(C)C)cc3Cl)c2n1 [Example 109, 5-(1-butanesulfonylcarbamoyl)-3-(4-(N-t-butoxycarbonylamino)-2-chlorobenzyl)-2-methyl-3H-imidazo[4,5-b]pyridine] | 229 to 230
23 | CCCCS(=O)(=O)NC(=O)c1ccc2nc(C)n(Cc3ccc(NC(=O)OCC)cc3Cl)c2n1 [Example 111, 3-(4-ethoxycarbonylamino-2-chlorobenzyl)-2-methyl-5-(1-butanesulfonylcarbamoyl)-3H-imidazo[4,5-b]pyridine] | 236 to 237
24 | CCC/C=C/S(=O)(=O)NC(=O)c1ccc2nc(C)n(Cc3ccc(NC(=O)OC(C)(C)C)cc3Cl)c2n1 [Example 112, 3-(4-(N-t-butoxycarbonylamino)-2-chlorobenzyl)-2-methyl-5-((E)-1-penten-1-ylsulfonylcarbamoyl)-3H-imidazo[4,5-b]pyridine] | 215 to 216
25 | CCC/C=C/S(=O)(=O)NC(=O)c1ccc2nc(C)n(Cc3ccc(NC(=O)OCC)cc3Cl)c2n1 [Example 114, 3-(4-ethoxycarbonylamino-2-chlorobenzyl)-2-methyl-5-((E)-1-penten-1-ylsulfonylcarbamoyl)-3H-imidazo[4,5-b]pyridine] | 233 to 234
26 | CCCCCS(=O)(=O)NC(=O)c1ccc2nc(C)n(Cc3ccc4c(nc(C)n4C)c3Cl)c2n1 [Example 120, 3-[(4-chloro-1,2-dimethyl-1H-benzimidazol-5-yl)methyl]-2-methyl-5-(1-pentanesulfonylcarbamoyl)-3H-imidazo[4,5-b]pyridine] | 229 to 231
27 | CCCCCS(=O)(=O)NC(=O)c1ccc2nc(C)n(Cc3ncc(Cl)cc3Cl)c2n1 [Example 123, 3-[(3,5-dichloropyridin-2-yl)methyl]-2-methyl-5-(1-pentanesulfonylcarbamoyl)-3H-imidazo[4,5-b]pyridine] | 155 to 156
28 | CCCCCS(=O)(=O)NC(=O)c1ccc2nc(C)n(Cc3ccc(-c4ccccc4)nc3Cl)c2n1 [Example 127, 3-[(2-chloro-6-phenylpyridin-3-yl)methyl]-2-methyl-5-(1-pentanesulfonylcarbamoyl)-3H-imidazo[4,5-b]pyridine] | 224 to 225
29 | CCCCCS(=O)(=O)NC(=O)c1ccc2nc(C)n(Cc3ncc(NC(=O)OC(C)(C)C)cc3Cl)c2n1 [Example 129, 3-[(5-(N-(tert-butoxycarbonyl)amino)-3-chloropyridin-2-yl)methyl]-2-methyl-5-(1-pentanesulfonylcarbamoyl)-3H-imidazo[4,5-b]pyridine] | 193 to 194
30 | CCCCCS(=O)(=O)NC(=O)c1ccc2nc(C)n(Cc3ncc(NC(=O)OCC)cc3Cl)c2n1 [Example 132, 3-[(3-chloro-5-(N-(ethoxycarbonyl)amino)pyridin-2-yl)methyl]-2-methyl-5-(1-pentanesulfonylcarbamoyl)-3H-imidazo[4,5-b]pyridine] | 232 to 233
31 | CCCCCS(=O)(=O)NC(=O)c1ccc2nc(C)n(Cc3ncc(NC(=O)OC(C)C)cc3Cl)c2n1 [Example 135, 3-[(5-(N-(isopropoxycarbonyl)amino)-3-chloropyridin-2-yl)methyl]-2-methyl-5-(1-pentanesulfonylcarbamoyl)-3H-imidazo[4,5-b]pyridine] | 228 to 230
